Reference: patent publication US6573258B2, “Photodynamic porphyrin antimicrobial agents” (Frontier Scientific, Inc., priority 2000, dated 2003)

Key:
E. coli cells [1] = assay: Growth inhibition after 5 min incubation with porphyrin and white-light irradiation; type: cell-based, Escherichia coli
Experimental: (§1) The abilities of various examples of the porphyrins of the instant invention to kill Gram-negative and Gram-positive bacteria were tested against that of T4MPyP. Each of the compounds was incubated with E. coli and S. aureus cells for 5 minutes, following which the samples were irradiated with white light for varying lengths of time.
(§2) Escherichia coli strain O4 (wild type), and methycillin-resistant Staphylococcus aureus, strain MRSA 110, were grown aerobically at 37° C. in brain heart infusion broth (BHI, Difco, Detroit, Mich.). The cells in the stationary phase of growth were harvested by centrifugation (2,000 g for 15 min) of the broth cultures, washed twice with 10 mM PBS at pH=7.4, containing 2.7 mM KCl and 0.14 M NaCl, and suspended in PBS at a density of 10^8-10^9 cells/ml (absorbance of about 0.7 at 650 nm). Aliquots of 5 ml of the cell suspension were incubated with 1 μM porphyrins for 5 min in the dark at room temperature. After incubation the suspensions were centrifuged and the cell pellets were collected immediately or washed with PBS and centrifuged again for one or three times.
(§3) The toxic effects of T4MPyP and its analogues on E. coli and S. aureus cells were evaluated by measuring the extent of growth inhibition (bacteriostatic effect) and reduction of survival (cytocidal/bacteriocidal effect) following treatment with porphyrin in the dark or upon light exposure.
(§4) In all cases, 5 ml of the cell suspension (10^8-10^9 cells/ml) were incubated for 5 min in the dark at room temperature with the selected photosensitizer at concentrations ranging between 0.5 and 10 μM. After dark-incubation, some of the cell samples were irradiated with white light (150 mW/cm^2). During irradiation, (up to 30 min) the cells were kept at 37° C. and magnetically stirred. The treated and untreated control cells were diluted with BHI and maintained at 37° C. while the absorbance of the suspension at 650 nm was monitored at predetermined time periods for determining growth curves. The percent of growth inhibition in the treated cells was calculated by the following equation: […]
(§5) where AX, and AC are the absorbances measured after 3 h incubation, respectively, for the treated and control cell suspensions, respectively, while A0 represents the initial absorbance and the AC is that of the control cell suspension after 5 hours incubation. Cell survival was determined by plating serially diluted aliquots of treated and untreated cells on brain heart agar and counting the number of colonies after 18-24 h incubation at 37° C.

S. aureus cells [2] = assay: as above; type: cell-based, Staphylococcus aureus
Experimental: as §1, §2, §3
[…] After dark-incubation, some of the cell samples were irradiated with white light (150 mW/cm^2). During irradiation, (up to 30 min) the cells were kept at 37° C. and magnetically stirred. The treated and untreated control cells were diluted with BHI and maintained at 37° C. while the absorbance of the suspension at 650 nm was monitored at predetermined time periods for determining growth curves. The percent of growth inhibition in the treated cells was calculated by the following equation:
as §5

E. coli cells [3] = assay: Decrease of cell survival (colony counting) after white-light irradiation; type: cell-based, Escherichia coli; details: 5 min dark incubation, 15 min white light (150 mW/cm^2)
Experimental: as §2, §3, §4, §5

[4] = Fluorescence quantum yields; type: physicochemical; details: for ΦF (PBS), fluorescence quantum yield: in PBS; for ΦF (SDS), fluorescence quantum yield: in aqueous 2% SDS
Experimental: Ground-state absorption spectra of the porphyrins (ca. 5 μM in phosphate buffered saline (PBS, pH=7.4) were recorded with a Lambda 5 Perkin-Elmer spectrophotometer. Fluorescence spectra, corrected for the instrumental response, were recorded with a Perkin-Elmer (model LS) or a Spex (Fluorolog F112) spectrofluorimeter. Fluorescence quantum yields ((IF) of the porphyrin derivatives in PBS and in water containing 2% sodium dodecylsulfate (a detergent, hereinafter “SDS”) were determined by measuring the area of the emission spectrum (600-800 nm range, excitation at 560 nm) and using tetra-n-propylporphycene in toluene as a reference (ΦF=0.38). Braslavsky et al, J. Photochem. Photobiol. B: Biol., 40:191-198 (1997). In all cases, the absorbance of the sample and the reference solution were kept below 0.1 at the excitation wavelength to minimize inner filter effects.

[5] = Fluorescence decay times (phase-shift method); type: physicochemical; details: ca. 5 μM, air-equilibrated buffer pH 7.4, λexc = 420 nm, λem > 600 nm
Experimental: Fluorescence decay times of the porphyrin samples were measured by means of a Spex Fluorolog-τ2 spectrofluorimeter based on the phase-shift method. The frequency response curves (phase-shift and demodulation ratio vs. frequency) were globally analyzed.

[6] = Triplet state properties by laser flash photolysis; type: physicochemical; details: phosphate-buffered solution; for φT, triplet quantum yield: ε920 estimated by total depletion method
Experimental: Laser flash photolysis experiments were carried out by use of the setup previously described in Gomer, et al., with excitation wavelengths of 355 and 420 nm. Gorner, et al., Photoinduced electron transfer between styrylanthracenes and electron donors and acceptors in acetonitrile, J. Chem. Soc. Faraday Trans., vol. 88, pp. 29-34 (1992).
The transient spectra of the porphyrins in buffer solutions were recorded upon laser flash photolysis excitation at 355 and 420 nm. […] The decay (growth) of the signal (bleaching) occurred according to first-order kinetics and led to a complete recovery of the ground state with a lifetime of 91 μs. […] This also allowed the triplet quantum yield (φT) to be determined (see Table 3), after calibration of the experimental setup by use of an optically-matched solution of benzophenone in acetonitrile.

[7] = Photosensitized photooxidation of NATA; details: 10 μM NATA; for ΦSDS × 10^3, quantum yield for photo-oxidation of NATA: aqueous 2% SDS; for ΦPBS × 10^3, quantum yield for photo-oxidation of NATA: phosphate buffered solution
Experimental: The photosensitizing activity of the various porphyrins was tested by measuring their efficiency in promoting the photooxidation of N-acetyl-L-tryptophanamide (NATA, Aldrich Chem. Co.) as a model biological substrate. Toward this aim, 10 μM NATA in PBS or in water containing 2% SDS was irradiated in the presence of 5 μM porphyrin. The irradiations were performed with 515±10 nm-light isolated by means of an interference filter (Balzers, Liechtenstein), while the solution (2 ml) was magnetically stirred in a quartz cuvette of 1-cm optical path and kept at 25° C. The photosensitized modification of NATA was followed by measuring the decrease in the intensity of its fluorescence emission spectrum (300-450 nm) upon excitation with 290 nm-light at various irradiation times. Plots of in F°/F (where F° and F represent the fluorescence intensity at time 0 and t, respectively) vs. the irradiation time allowed the first-order rate constants of the photo-process to be derived.
The intensity of the incident light was measured by using Aberchrome 999P in toluene as an actinometer. Heller, EPA Newslett., 29:49-60 (1987). This parameter was used to calculate the quantum yields of NATA photooxidation sensitized by the different porphyrins.

[8] = Photostability (photobleaching) under white light; type: physicochemical; details: 1 μM in PBS
Experimental: The photostability of the porphyrins was determined in PBS upon illumination of […] solutions with white light (400-800 nm) isolated from the emission of a quartz-halogen lamp equipped with UV and infrared filters (Teclas, Lugano, Switzerland). The lamp was operated at a fluence rate of 150 mW/cm^2. During irradiation, the solution was magnetically stirred and kept at 37° C. The concentration of the porphyrin samples was monitored spectrophotometrically at different irradiation times and the photostability was expressed as the percent residual absorbance referred to the absorbance measured prior to irradiation.

E. coli cells [9] = assay: Binding of porphyrins to bacteria cells; type: cell-based, Escherichia coli; details: 5 min incubation, 1 μM porphyrin, three PBS washings
Experimental: as §2
(§6) The amount of cell-bound porphyrins was determined in the pellets after resuspension and overnight-incubation in 2% aqueous SDS. The porphyrin concentration in the cell lysate was determined by measuring the intensity of red fluorescence (600-750 nm) emitted after excitation at 420 nm and interpolating the data on a calibration plot obtained with known porphyrin concentrations. The protein content of the cell samples was determined by the method of Lowry (Lowry et al., J. Biol. Chem., 193:265-275 (1951)) and was used to express the amount of porphyrin bound to the cells as nanomoles of porphyrin/mg of protein.

S. aureus cells [10] = assay: Binding of porphyrins to bacteria cells; type: cell-based, Staphylococcus aureus; details: S. aureus, 5 min incubation, 1 μM porphyrin, three PBS washings
Experimental: as §2, §6

S. aureus cells [11] = assay: Dark toxicity of porphyrins on bacteria cells; type: cell-based, Staphylococcus aureus; details: 10 μM, 5 min incubation in the dark
Experimental: as §3, §4, §5

E. coli cells [12] = assay: Dark toxicity of porphyrins on bacteria cells; type: cell-based, Escherichia coli; details: 10 μM, 5 min incubation in the dark
Experimental: as §3, §4, §5

[13] = 1 μM, incubated 5 min, white light 5 min
[14] = Table 5: 1 μM, 5 min incubation, 5 min white light (150 mW/cm^2)
[15] = 10 μM, incubated 5 min, white light 5 min
[16] = 10 μM, incubated 5 min, white light 15 min
[17] = Table 5: 10 μM, 5 min incubation, 5 min white light (150 mW/cm^2)

| Structure (SMILES) | DECREASE OF SURVIVAL (log) (E. coli cells [3]; 1 μM porphyrin) | DECREASE OF SURVIVAL (log) (E. coli cells [3]; 10 μM porphyrin) | ΦF (PBS), fluorescence quantum yield [4] | ΦF (SDS), fluorescence quantum yield [4] | A2, relative weight of slow component [5] | τ1, fluorescence decay time of fast component [5] | τ2, fluorescence decay time of slow component [5] | λmin of transient spectrum [6] | φ×ε920 [6] | τ^air, triplet lifetime [6] | φT, triplet quantum yield [6] | ΦSDS × 10^3, quantum yield for photo-oxidation of NATA [7] | ΦPBS × 10^3, quantum yield for photo-oxidation of NATA [7] | further results |
| --- | --- | --- | --- | --- | --- | --- | --- | --- | --- | --- | --- | --- | --- | --- |
| CCCCCCCCCCCCCCCCCCCCCC[n+]1ccc(-c2c3nc(c(-c4cc[n+](C)cc4)c4ccc([nH]4)c(-c4cc[n+](C)cc4)c4nc(c(-c5cc[n+](C)cc5)c5ccc2[nH]5)C=C4)C=C3)cc1.Cl.Cl.[Cl-].[Cl-].[Cl-].[Cl-] [Porphyrin C22, 5-(4-N-docosanyl)-10,15,20-tris(4-N-methylpyridyl)-21H,23H-porphine tetrachloride dihydrochloride salt] | +0.22 ± 0.07 log | −1.94 ± 0.28 log | 0.001 | 0.029 | 73% | 0.5 ns | 5.9 ns | 420 nm | <122 M⁻¹ cm⁻¹ | 0.1 μs | <0.08 | 0.83 ± 0.08 | below our detection limits | Growth inhibition (%) E. coli (E. coli cells [1]; [13]): 2.7%; Growth inhibition (%) E. coli (E. coli cells [1]; 1 μM, incubated 5 min, white light 30 min): 18.5%; Growth inhibition (%) E. coli (E. coli cells [1]; [14]): 3%; Growth inhibition (%) S. aureus (S. aureus cells [2]; [13]): 69.7%; Growth inhibition (%) S. aureus (S. aureus cells [2]; 1 μM, incubated 5 min, white light 10 min): 90.2%; Growth inhibition (%) S. aureus (S. aureus cells [2]; Table 5: 0.5 μM, 5 min incubation, 5 min white light (150 mW/cm^2)): 27%; Growth inhibition (%) S. aureus (S. aureus cells [2]; [14]): 70%; t^1/2 of initial fast photodegradation phase [8]: 6.5 min |
| C[n+]1ccc(-c2c3nc(c(-c4cc[n+](C)cc4)c4ccc([nH]4)c(-c4cc[n+](C)cc4)c4nc(c(-c5cc[n+](C)cc5)c5ccc2[nH]5)C=C4)C=C3)cc1.Cc1ccc(S(=O)(=O)[O-])cc1.Cc1ccc(S(=O)(=O)[O-])cc1.Cc1ccc(S(=O)(=O)[O-])cc1.Cc1ccc(S(=O)(=O)[O-])cc1 [Porphyrin T4MPyP, Meso-tetra(N-methyl-4-pyridyl)porphine tetratosylate, reference compound] | +0.28 log | −1.82 ± 0.82 log | 0.017 | 0.031 | 71% | 1.0 ns | 4.7 ns | 425 nm | 6814 M⁻¹ cm⁻¹ | 14 μs | 0.73 | 0.64 ± 0.08 | 0.77 ± 0.21 | Growth inhibition (%) E. coli (E. coli cells [1]; [15]): 28.7%; Growth inhibition (%) E. coli (E. coli cells [1]; [16]): 82.8%; Growth inhibition (%) E. coli (E. coli cells [1]; [17]): 29%; concentration photoinducing significant bacteriostatic and bactericidal action (E. coli cells [1]; both cell strains (S. aureus and E. coli)): 10 µM; Growth inhibition (%) S. aureus (S. aureus cells [2]; [15]): 96.4%; Growth inhibition (%) S. aureus (S. aureus cells [2]; [16]): 100%; Growth inhibition (%) S. aureus (S. aureus cells [2]; [17]): 96%; A1, relative weight of fast component [5]: 29%; λmax of transient spectrum [6]: 480 nm; τ^N2, triplet lifetime ([6]; N2): 91 μs; initially bound porphyrin retained after three washings (E. coli cells [9]): 11%; initially bound porphyrin retained after three washings (S. aureus cells [10]): 16%; inhibition of bacterial cell growth in the dark (S. aureus cells [11]): barely detectable inhibition; inhibition of bacterial cell growth in the dark (E. coli cells [12]): barely detectable inhibition |
